From patent US5532267A, “Amidinonaphthyl furancarboxylate derivatives and acid addition salts therof” (Torii & Co., Ltd., priority 1992, dated 1996)
Where a name gives a salt, the structure may show the parent alone. Read-outs that look alike come from different tables or passages of the source.

Experiments:
Assay type in all cases: biochemical
kallikrein = assay: anti-kallikrein activity, hydrolysis of TAME (tosylarginine methyl ester); conditions: for IC50: hydrolysis of TAME, read-out: Kal: molar concentration inhibiting 50% of enzyme activity (IC50); for Kal: percentage inhibition: at a concentration of 1 × 10^-5 M
Procedure: (§1) The values in Table 1 represent molar concentrations (IC50) of test compounds which inhibit 50% of the activity of each enzyme to hydrolyze TAME (tosylarginine methyl ester). The anti-trypsin, anti-plasmin, anti-kallikrein and anti-thrombin activities were determined according to the method of Muramatsu et al. (J. Biochem. (1965), volume 58, page 214).

thrombin = thrombin (Homo sapiens, UniProt P00734); assay: anti-thrombin activity, hydrolysis of TAME (tosylarginine methyl ester); conditions: for IC50: hydrolysis of TAME, read-out: Thr: molar concentration inhibiting 50% of enzyme activity (IC50); for inhibition at 10 µM: at a concentration of 1 × 10^-5 M, read-out: Thr: percentage inhibition
Procedure: as §1

trypsin = molecular target: T1, trypsin (Bos taurus, UniProt P00760); assay: anti-trypsin activity, hydrolysis of TAME (tosylarginine methyl ester)
T1 sequence (P00760 24-246): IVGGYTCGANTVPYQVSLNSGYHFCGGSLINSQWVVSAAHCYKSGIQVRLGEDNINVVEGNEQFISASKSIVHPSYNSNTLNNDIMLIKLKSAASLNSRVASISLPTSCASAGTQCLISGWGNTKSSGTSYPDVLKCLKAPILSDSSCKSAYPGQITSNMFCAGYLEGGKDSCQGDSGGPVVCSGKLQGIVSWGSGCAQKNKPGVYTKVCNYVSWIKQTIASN

C1r = molecular target: T2, C1r (Homo sapiens, UniProt P00736); assay: anti-complement (anti-C1 esterase) activity, C1r hydrolysis of AAME (acetyl-arginine methyl ester); conditions: for inhibition at 10 µM: read-out: Clr: percentage inhibition
T2 sequence (P00736 18-705): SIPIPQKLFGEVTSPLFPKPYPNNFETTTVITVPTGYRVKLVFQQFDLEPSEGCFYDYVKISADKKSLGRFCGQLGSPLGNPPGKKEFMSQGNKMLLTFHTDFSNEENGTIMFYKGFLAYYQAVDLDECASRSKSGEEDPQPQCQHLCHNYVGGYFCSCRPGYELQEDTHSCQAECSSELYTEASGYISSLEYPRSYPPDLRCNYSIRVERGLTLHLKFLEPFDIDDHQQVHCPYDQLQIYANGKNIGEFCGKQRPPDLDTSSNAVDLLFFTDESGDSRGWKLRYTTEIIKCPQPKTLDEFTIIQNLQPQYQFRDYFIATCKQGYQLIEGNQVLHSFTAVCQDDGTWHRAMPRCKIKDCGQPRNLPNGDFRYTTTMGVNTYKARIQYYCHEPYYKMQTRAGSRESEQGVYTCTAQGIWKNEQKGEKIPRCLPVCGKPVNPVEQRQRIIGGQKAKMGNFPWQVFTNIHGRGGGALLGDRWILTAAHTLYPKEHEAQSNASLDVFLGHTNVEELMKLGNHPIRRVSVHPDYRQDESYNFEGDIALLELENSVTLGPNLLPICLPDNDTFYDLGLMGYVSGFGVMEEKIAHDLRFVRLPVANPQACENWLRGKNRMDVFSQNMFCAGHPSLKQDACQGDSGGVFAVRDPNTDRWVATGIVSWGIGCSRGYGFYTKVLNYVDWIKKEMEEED

plasmin = plasmin (Homo sapiens, UniProt P00747); assay: anti-plasmin activity, hydrolysis of TAME (tosylarginine methyl ester)
Sequence of plasmin (P00747 581-810 limits assumed, species assumed): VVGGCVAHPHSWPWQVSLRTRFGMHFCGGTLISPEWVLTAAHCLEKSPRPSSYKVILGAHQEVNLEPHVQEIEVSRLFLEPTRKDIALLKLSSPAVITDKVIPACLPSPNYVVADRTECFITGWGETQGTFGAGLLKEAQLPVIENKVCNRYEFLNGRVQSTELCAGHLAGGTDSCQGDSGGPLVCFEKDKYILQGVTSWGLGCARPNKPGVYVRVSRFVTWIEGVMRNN
Sequence of plasmin (P00747 97-580 partner limits assumed, species assumed): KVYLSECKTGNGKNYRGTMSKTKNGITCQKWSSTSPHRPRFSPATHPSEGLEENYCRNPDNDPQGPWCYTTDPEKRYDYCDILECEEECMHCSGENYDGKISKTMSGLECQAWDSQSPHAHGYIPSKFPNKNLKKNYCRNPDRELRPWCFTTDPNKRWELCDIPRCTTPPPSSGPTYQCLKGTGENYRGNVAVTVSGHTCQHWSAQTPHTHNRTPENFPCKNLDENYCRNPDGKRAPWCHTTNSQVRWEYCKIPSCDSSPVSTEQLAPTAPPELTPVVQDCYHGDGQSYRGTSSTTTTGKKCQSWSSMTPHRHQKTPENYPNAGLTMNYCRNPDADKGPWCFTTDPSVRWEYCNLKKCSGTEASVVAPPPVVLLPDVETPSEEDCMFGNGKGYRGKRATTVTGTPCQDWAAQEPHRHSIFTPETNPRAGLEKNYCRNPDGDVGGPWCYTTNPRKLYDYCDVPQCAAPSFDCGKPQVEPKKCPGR
Procedure: as §1

C1s = molecular target: T3, C1s (Homo sapiens, UniProt P09871); assay: anti-complement (anti-C1 esterase) activity, C1s hydrolysis of ATEE (acetyltyrosine ethyl ester); conditions: for IC50: hydrolysis of ATEE, read-out: Cls: molar concentration inhibiting 50% of C1s activity (IC50)
T3 sequence (P09871 16-688): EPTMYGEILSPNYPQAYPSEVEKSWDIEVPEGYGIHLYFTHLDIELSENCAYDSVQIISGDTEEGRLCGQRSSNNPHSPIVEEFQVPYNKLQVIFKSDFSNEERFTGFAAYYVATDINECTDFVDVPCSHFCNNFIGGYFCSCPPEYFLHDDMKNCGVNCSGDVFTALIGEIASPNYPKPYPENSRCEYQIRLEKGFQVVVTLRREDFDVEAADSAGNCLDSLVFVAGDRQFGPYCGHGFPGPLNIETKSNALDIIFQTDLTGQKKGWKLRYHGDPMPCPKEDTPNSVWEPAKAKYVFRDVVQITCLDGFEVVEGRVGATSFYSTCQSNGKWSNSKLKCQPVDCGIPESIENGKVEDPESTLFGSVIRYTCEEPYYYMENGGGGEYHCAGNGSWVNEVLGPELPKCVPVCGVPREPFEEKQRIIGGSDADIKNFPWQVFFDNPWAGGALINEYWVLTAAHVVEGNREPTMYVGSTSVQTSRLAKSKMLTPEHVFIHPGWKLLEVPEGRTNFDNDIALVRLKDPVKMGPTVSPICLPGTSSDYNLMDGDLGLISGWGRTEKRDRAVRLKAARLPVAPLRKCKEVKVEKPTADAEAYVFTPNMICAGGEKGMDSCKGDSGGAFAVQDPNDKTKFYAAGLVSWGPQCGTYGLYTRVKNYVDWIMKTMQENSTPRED
Procedure: The anti-C1 esterase (C1r, C1s) activity was determined according to the method of Okamura et al. (Biochem. Biophys. Acta (1973), volume 295, pages 252-257). […] The values for C1s represent molar concentrations (IC50) of test compounds which inhibit 50% of the activity of C1s to hydrolyze ATEE (acetyltyrosine ethyl ester).

[1] = hydrolysis of AAME, read-out: Clr: molar concentration inhibiting 50% of C1r activity (IC50)
[2] = hydrolysis of TAME, read-out: Pla: molar concentration inhibiting 50% of enzyme activity (IC50)
[3] = hydrolysis of TAME, read-out: Try: molar concentration inhibiting 50% of enzyme activity (IC50)

Row | IC50 (kallikrein) [nM] | IC50 (thrombin) [nM] | IC50 (C1r; [1]) [nM] | IC50 (plasmin; [2]) [nM] | IC50 (C1s) [nM] | IC50 (trypsin; [3]) [nM] | IC50 (C1r) [nM] | Compound | IC50 (trypsin) [nM] | Kal: percentage inhibition (kallikrein) [%] | inhibition at 10 µM (thrombin) [%] | inhibition at 10 µM (C1r; at a concentration of 1 × 10^-5 M) [%] | inhibition at 10 µM (C1s; read-out: Cls: percentage inhibition) [%] | inhibition at 10 µM (trypsin; read-out: Try: percentage inhibition) [%] | inhibition at 10 µM (C1r) [%] | IC50 (plasmin) [nM]
1 | 210 | 70 | 64 | 72 | 160 | 340 |  | COC(=O)Cc1ccc(C(=O)NCc2ccc(C(=O)Oc3ccc4cc(C(=N)N)ccc4c3)o2)cc1 [Example 4, 6-Amidino-2-naphthyl 5-(4-methoxycarbonylmethylbenzoylaminomethyl)furan-2-carboxylate hydrochloride] |  |  |  |  |  |  |  | 
2 | 1500 | 400 | 740 | 300 | 460 | 1800 |  | N=C(N)c1ccc2cc(OC(=O)c3ccc(CNC(=O)c4ccc(CC(=O)O)cc4)o3)ccc2c1 [Example 7, 6-Amidino-2-naphthyl 5-(4-carboxymethylbenzoylaminomethyl)furan-2-carboxylate hydrochloride] |  |  |  |  |  |  |  | 
3 | 2700 | 1400 | 830 | 1100 | 2000 | 2100 |  | N=C(N)c1ccc2cc(OC(=O)c3ccc(CNC(=O)C=Cc4ccc(C(=O)O)cc4)o3)ccc2c1 [Example 8, 6-Amidino-2-naphthyl 5-(4-carboxycinnamoylaminomethyl)furan-2-carboxylate hydrochloride] |  |  |  |  |  |  |  | 
4 | 6000 | 650 | 2800 | 500 | 2300 | 4800 |  | N=C(N)c1ccc2cc(OC(=O)c3ccc(CNC(=O)c4ccc(CCC(=O)O)cc4)o3)ccc2c1 [Example 9, 6-Amidino-2-naphthyl 5-[4-(2-carboxyethyl)benzoylaminomethyl]furan-2-carboxylate hydrochloride] |  |  |  |  |  |  |  | 
5 | 250 | 1600 |  | 150 | 26 | 600 | 160 | N=C(N)c1ccc2cc(OC(=O)c3ccc(CNC(=O)[C@H]4CC[C@@H](C(=O)O)CC4)o3)ccc2c1 [Example 10, 6-Amidino-2-naphthyl 5-(cis-4-carboxy-1-cyclohexanoylaminomethyl)furan-2-carboxylate hydrochloride] |  |  |  |  |  |  |  | 
6 | 770 | 600 | 2800 | 270 | 210 | 480 |  | N=C(N)c1ccc2cc(OC(=O)c3ccc(CNC(=O)/C=C\C(=O)O)o3)ccc2c1 [Example 12, 6-Amidino-2-naphthyl 5-(cis-2-carboxyvinyl)carbonylaminomethylfuran-2-carboxylate methanesulfonate] |  |  |  |  |  |  |  | 
7 | 3800 | 1300 | 6900 | 240 | 350 | 340 |  | N=C(N)c1ccc2cc(OC(=O)c3ccc(CNC(=O)C(=O)O)o3)ccc2c1 [Example 16, 6-Amidino-2-naphthyl 5-oxaloaminomethylfuran-2-carboxylate hydrochloride] |  |  |  |  |  |  |  | 
8 | 700 | 960 | 540 | 330 | 180 | 310 |  | N=C(N)c1ccc2cc(OC(=O)c3ccc(CNC(=O)CCC(=O)O)o3)ccc2c1 [Example 21, 6-amidino-2-naphthyl 5-(3-carboxypropionylaminomethyl)furan-2-carboxylate hydrochloride] |  |  |  |  |  |  |  | 

Row | Compound | IC50 (kallikrein) [nM] | IC50 (thrombin) [nM] | IC50 (C1r; [1]) [nM] | IC50 (plasmin; [2]) [nM] | IC50 (C1s) [nM] | IC50 (trypsin; [3]) [nM] | IC50 (C1r) [nM] | IC50 (trypsin) [nM] | Kal: percentage inhibition (kallikrein) [%] | inhibition at 10 µM (thrombin) [%] | inhibition at 10 µM (C1r; at a concentration of 1 × 10^-5 M) [%] | inhibition at 10 µM (C1s; read-out: Cls: percentage inhibition) [%] | inhibition at 10 µM (trypsin; read-out: Try: percentage inhibition) [%] | inhibition at 10 µM (C1r) [%] | IC50 (plasmin) [nM]
9 | CC(C)(C)OC(=O)C=Cc1ccc(C(=O)NCc2ccc(C(=O)Oc3ccc4cc(C(=N)N)ccc4c3)o2)cc1 [Example 1, 6-Amidino-2-naphthyl 5-[4-(2-t-butoxycarbonylvinyl)benzoylaminomethyl]furan-2-carboxylate hydrobromide] | 470 | 350 | 340 | 150 | 270 |  |  | 350 |  |  |  |  |  |  | 
10 | Cl.N=C(N)c1ccc2cc(OC(=O)c3ccc(CNC(=O)c4ccc(C=CC(=O)O)cc4)o3)ccc2c1 [Example 2, 6-Amidino-2-naphthyl 5-[4-(2-carboxyvinyl)benzoylaminomethyl]furan-2-carboxylate hydrochloride] |  |  |  | 4800 |  | 8400 |  |  | 46 | 47 | 29 | 17 |  |  | 
11 | Cl.N=C(N)c1ccc2cc(OC(=O)c3ccc(CNC(=O)c4ccc(C(=O)O)cc4)o3)ccc2c1 [Example 3, 6-Amidino-2-naphthyl 5-(4-carboxybenzoylaminomethyl)furan-2-carboxylate hydrochloride] |  |  |  | 8600 | 3400 |  |  |  | 33 | 26 |  |  | 48 | 34 | 
12 | CC(C)(C)OC(=O)c1ccc(CC(=O)NCc2ccc(C(=O)Oc3ccc4cc(C(=N)N)ccc4c3)o2)cc1 [Example 5, 6-Amidino-2-naphthyl 5-(4-t-butoxycarbonylphenylacetylaminomethyl)furan-2-carboxylate hydrochloride] | 300 | 180 | 73 | 100 | 360 | 340 |  |  |  |  |  |  |  |  | 
13 | CC(C)(C)OC(=O)CC(=O)NCc1ccc(C(=O)Oc2ccc3cc(C(=N)N)ccc3c2)o1 [Example 15, 6-Amidino-2-naphthyl 5-t-butoxymalonylaminomethylfuran-2-carboxylate hydrochloride] | 320 | 400 | 840 | 310 | 230 | 710 |  |  |  |  |  |  |  |  | 
14 | CC(C)(C)OC(=O)CCC(=O)NCc1ccc(C(=O)Oc2ccc3cc(C(=N)N)ccc3c2)o1 [Example 18, 6-amidino-2-naphthyl 5-(3-t-butoxycarbonylpropionylaminomethyl)furan-2-carboxylate hydrochloride] | 210 | 350 | 340 |  | 190 | 400 |  |  |  |  |  |  |  |  | 190
15 | CC(C)(C)OC(=O)CCCC(=O)NCc1ccc(C(=O)Oc2ccc3cc(C(=N)N)ccc3c2)o1 [Example 19, 6-Amidino-2-naphthyl 5-(4-t-butoxycarbonyl-butyrylaminomethyl)furan-2-carboxylate hydrochloride] | 250 | 360 | 1800 | 170 | 720 | 250 |  |  |  |  |  |  |  |  | 
16 | CC(C)(C)OC(=O)CCC(NC(=N)N)C(=O)NCc1ccc(C(=O)Oc2ccc3cc(C(=N)N)ccc3c2)o1 (stereo not drawn) [Example 20, 6-amidino-2-naphthyl 5-(4-t-butoxycarbonyl-2-guanidinobutyrylaminomethyl)furan-2-carboxylate hydrochloride hydrobromide] | 130 | 460 | 380 | 180 | 390 | 2000 |  |  |  |  |  |  |  |  | 
